Measured values taken from patent publication US20050009023A1, “Glucocorticoid-induced receptor and methods of use” (priority 2001, published 2005).

How the values were obtained:
Male Sprague-Dawley rats = test: Locomotor activity (crossovers) after amphetamine challenge, behavioral sensitization; type: in vivo, rat; conditions: AMPH 2.5 mg/kg challenge, mean±SE
Method: (§1) GIR mRNA Expression Following Chronic Amphetamine Administration. Male Sprague-Dawley rats (200-250g, Harlan Sprague-Dawley Laboratories, Indianapolis, Ind.) received subcutaneous injection of either d-amphetamine (AMPH) (2.5 mg/kg) or saline (1 ml/kg) in their home cages once daily for 5 consecutive days (days 1-5). On day 9, four days following completion of this pre-treatment regimen, all animals were transferred to Residential Activity Chambers (RACs) (Segal and Kuczenski, 1987; Richtand et al., 2000), and received saline injection (1 ml/kg) on days 10 and 11 to measure conditioned response to injection. On day 12, seven days following completion of the pre-treatment regimen, all rats received AMPH (2.5 mg/kg) and locomotor activity was determined by photobeam monitoring for 150 minutes following injection. Locomotor activity is expressed as crossovers, defined as the number of times the animal crosses into any of four quadrants subdividing the enclosure. All animals were sacrificed by decapitation 4 hours following injection and total RNA was extracted from prefrontal cortex for determination of GIR mRNA expression. In a separate experiment, rats were injected with either AMPH (2.5 mg/kg) or saline (1 ml/kg) for 5 consecutive days, and sacrificed by decapitation 7 days after the last injection without the final AMPH challenge. Thus, four groups were generated: SAL-AMPH (Saline×5 days and AMPH at challenge), AMPH-AMPH (AMPH×5 days and AMPH at challenge), SAL (Saline×5 days), and AMPH (AMPH×5 days).

[1] = system: GIR mRNA in rat prefrontal cortex; test: GIR mRNA expression following chronic amphetamine administration (competitive RT-PCR); type: in vivo; conditions: for GIR mRNA levels in prefrontal cortex: mean±SE, n=6
Method: as §1
Construction of Competitor DNA and Quantitative RT-PCR. To construct the mutant template for competitive PCR, a 20 bp GIR sequence (5′-[…]-3′, 1213-1232 bp in FIG. 1; SEQ ID NO: 18) was incorporated into the upstream primer so that a rat GIR cDNA fragment was amplified by RT-PCR using the chimeric upstream primer (5′-[…]-3′, 1213-1232 bp in FIG. 1; SEQ ID NO:19) and the downstream primer (5′-CGGCCACAGTGGGTTCCAC-3′, 1575-1557 in FIG. 1; SEQ ID NO:13). The 262 bp PCR product was subcloned into pGEM-T vector (Promega, Madison, Wis.). The plasmid DNA was purified (Qiagen, Valencia, Calif.) and insert was verified by DNA sequencing. A fragment containing the mutant rat GIR template (262 bp) was released by EcoRI digestion and purified by agarose gel electrophoresis. DNA concentration was determined spectrophotometrically. Serial dilutions of mutant template were prepared.
The amount of GIR mRNA was quantitated by competitive RT-PCR as described previously (Miao et al., 2000). Briefly, reverse transcription was performed with 2 μg of total RNA using a non-specific random hexamer primer (Promega, Madsion, Wis.). One μl of first strand cDNA was mixed with known amounts of linearized competitor DNA ranging from […], and subjected to co-amplification with GIR-specific primers (5′-[…]-3′, 1213-1232 bp, SEQ ID NO:IS; and 5′-CGGCCACAGTGGGTTCCAC-3′, 1575-1557 bp in FIG. 1, SEQ ID NO:14). PCR was run for 30 cycles of 94° C./1 min, 60° C./2 min 72° C./3 min, and the PCR products were electrophoresed on 1.2% agarose gel. The intensities of bands, corresponding to the products from the GIR mRNA and the competitor with 101-bp size difference, was analyzed densitometrically by BioImage system combined with NIH software (Bio-Rad, Hercules, Calif.). The intensity ratios between the two bands were logarithmically plotted against the known initial input of competitor template, and the amount of GIR mRNA in the total RNA samples was calculated by linear regression. […]

C[C@H](N)Cc1ccccc1 [amphetamine, D-Amphetamine] was tested, and the “locomotion at 12-60 min post-injection (focused stereotypy phase)” value (Male Sprague-Dawley rats; AMPH-AMPH rats, n=6, P<0.0001) was 50.20±12.63 crossovers/12-60 min, the “locomotion at 60-150 min (post-stereotypy locomotion phase)” value (Male Sprague-Dawley rats; AMPH-AMPH rats, n=6, P<0.05) was 496.67±70.28 crossovers/60-150min and the “locomotion at 12-60 min post-injection (focused stereotypy phase)” value (Male Sprague-Dawley rats; SAL-AMPH rats, n=6) was 286.00±27.57 crossovers/12-60 min. The “locomotion at 60-150 min (post-stereotypy locomotion phase)” value (Male Sprague-Dawley rats; SAL-AMPH rats, n=6) was 312.25±29.17 crossovers/60-150min, the “GIR mRNA levels in prefrontal cortex, increase of AMPH-AMPH rats compared to SAL-AMPH rats” value ([1]; AMPH 2.5 mg/kg s.c. x5 days, AMPH challenge 7 days after, sacrificed 4 hours after injection, n=6, P<0.05) was 1.38 fold and the “GIR mRNA levels in prefrontal cortex, increase of AMPH rats compared to SAL rats” value ([1]; AMPH 2.5 mg/kg x5 days, no challenge injection, 7 days after last injection, n=6, P<0.05) was 1.70 fold. The “GIR mRNA levels in prefrontal cortex” value ([1]; AMPH rats (AMPH x5 days, no challenge), 7 days after amphetamine ceased) was 3.65±0.22 fg/100 ng total RNA, the “GIR mRNA levels in prefrontal cortex” value ([1]; AMPH-AMPH rats (AMPH x5 days and AMPH at challenge), 2.5 mg/kg s.c.) was 2.97(±0.26 fg/100 ng total RNA and the “GIR mRNA levels in prefrontal cortex” value ([1]; SAL-AMPH rats (saline x5 days and AMPH 2.5 mg/kg at challenge)) was 2.27(±0.22 fg/100 ng total RNA.
